Data from ChEMBL document CHEMBL1147353, “The Isolation of Majusculamide C from the Sponge Ptilocaulis trachys Collected in Enewetak and Determination of the Absolute Configuration of the 2-Methyl-3-aminopentanoic Acid Residue” (1993).
Values after ≈ are worked out from the molar mass of the structure shown. Numbered stars: 1 amine (or outer) side, 2 acyl side, 3 side chain; on linkers, the order of the positions; unused ones are H or OH. Square brackets hold non-standard residues; d marks the D form. Peptide text beside a SMILES is read from it. X1 = CC[C@H](C)[C@H](OC(=O)[C@@H](C)[C@@H](CC)N[*:1])C(=O)[*:2]; X2 = C[C@H](N[*:1])C(=O)C(C)(C)C(=O)[*:2]; NMeY = CN[C@@H](Cc1ccc(O)cc1)C(=O)O; NMeF = CN[C@@H](Cc1ccccc1)C(=O)O; NMeL = CN[C@@H](CC(C)C)C(=O)O; NMeV = CN[C@H](C(=O)O)C(C)C; NMeA = CN[C@@H](C)C(=O)O

System: P388
Test: Cytotoxicity against mouse P388 cells
Format: functional
Settings: read-out: ED50 (the source's name)

Compound	EC50
CC[C@H](C)[C@@H]1OC(=O)[C@@H](C)[C@@H](CC)NC(=O)[C@H](C)NC(=O)C(C)(C)C(=O)[C@H](C)NC(=O)[C@H](Cc2ccc(OC)cc2)N(C)C(=O)[C@H](C(C)C)N(C)C(=O)CNC(=O)[C@H](CC(C)C)N(C)C(=O)CNC1=O [DOLASTATIN 11] (cyclo(A[X1]G[NMeL]G[NMeV][NMeY](Me)[X2]))	0.0027 µg/mL (≈ 0.00274 µM)
CC[C@H](C)[C@@H]1OC(=O)[C@@H](C)[C@@H](CC)NC(=O)[C@H](C)N(C)C(=O)C(C)(C)C(=O)[C@H](C)NC(=O)[C@H](Cc2ccccc2)N(C)C(=O)[C@H](C(C)C)N(C)C(=O)CNC(=O)[C@H](CC(C)C)N(C)C(=O)CNC1=O [DOLASTATIN 12] (cyclo(G[NMeL]G[NMeV][NMeF][X2][NMeA][X1]))	0.075 µg/mL (≈ 0.0774 µM)
